# Read-outs that look alike come from different tables or passages of the source.
# Legend:
# [1] = tested on: baboon hepatic microsomes; assay: Biotransformation of bupropion by baboon hepatic microsomes
# [2] = as above; conditions: female, baboon (Papio cynocephalus), liver microsomes, pH 7.4, apparent Km
# [3] = Biotransformation of bupropion by baboon placental microsomes; conditions: baboon (Papio cynocephalus), pH 7.4, apparent Km
# [4] = tested on: TB and EB formation by baboon hepatic microsomes; conditions: hepatic microsomes 1 mg/ml, bupropion 30 µM, 40 min; menadione 100µM, 18β-GA 0.1µM, flufenamic acid 5µM, barbital, 4-methylpyrazole, dicumarol 500µM
# [5] = tested on: TB and EB formation by baboon placental microsomes; conditions: placental microsomes 1 mg/ml, bupropion 30 µM, 40 min; menadione 100µM, 18β-GA 0.1µM, flufenamic acid 5µM, barbital, 4-methylpyrazole, dicumarol 500µM
# [6] = tested on: TB formation (bupropion carbonyl reduction); carbonyl reductase (menadione), aldo-ketoreductase (flufenamic acid); assay: in vitro; conditions: baboon (Papio cynocephalus), liver microsomes, probe bupropion 30 µM (≈Km)
# [7] = tested on: TB formation (bupropion carbonyl reduction); carbonyl reductase (menadione), aldo-ketoreductase (flufenamic acid); assay: in vitro; conditions: baboon (Papio cynocephalus), placental microsomes, probe bupropion 30 µM (≈Km)
# [8] = tested on: EB formation (bupropion carbonyl reduction); carbonyl reductase (menadione), aldo-ketoreductase (flufenamic acid); assay: in vitro; conditions: baboon (Papio cynocephalus), placental microsomes, probe bupropion 30 µM (≈Km)
# [9] = tested on: EB formation (bupropion carbonyl reduction); aldo-ketoreductase (flufenamic acid); assay: in vitro; conditions: baboon (Papio cynocephalus), liver microsomes, probe bupropion 30 µM (≈Km)
# [10] = target: carbonyl-reducing enzymes of baboon placental microsomes; assay type: biochemical; conditions: read-out: IC50 (TB formation, placental microsomes)
# [11] = target: carbonyl-reducing enzymes of baboon placental microsomes; assay type: biochemical; conditions: read-out: IC50 (EB formation, placental microsomes)
# [12] = target: carbonyl-reducing enzymes of baboon hepatic microsomes; assay type: biochemical; conditions: read-out: IC50 (TB formation, hepatic microsomes); n = 3
# [13] = tested on: OH-BUP formation by baboon hepatic microsomes
structure (smiles),measurement,setting,value
CC(NC(C)(C)C)C(=O)c1cccc(Cl)c1 (stereo not shown) [bupropion],"Vmax, EB formation",[1],46 ± 8 pmol mgprotein^−1 min^−1
same,"Vmax, TB formation",[1],116 ± 19 pmol mgprotein^−1 min^−1
same,Km at 30 min,"[2]; hydroxylation of bupropion to OH-BUP, bupropion 10–400µM",36 ± 6 µM
same,Km at 30 min,[2]; reduction of bupropion to EB,32 ± 3 µM
same,Km at 30 min,[2]; reduction of bupropion to TB,28 ± 2 µM
same,Km at 40 min,[3]; reduction of bupropion to EB,32 ± 14 µM
same,Km at 40 min,[3]; reduction of bupropion to TB,20 ± 14 µM
CCC1(CC)C(=O)NC(=O)NC1=O [barbital],inhibition of EB formation,[4],did not affect
same,inhibition of TB formation,[4],did not affect
same,inhibition of EB formation,[5],did not affect
same,inhibition of TB formation,[5],did not affect
CC1=CC(=O)c2ccccc2C1=O [menadione],IC50 at 40 min,[6],47 µM
same,IC50 at 40 min,[7],27.9 µM
same,IC50 at 40 min,[8],30.3 µM
O=C(O)c1ccccc1Nc1cccc(C(F)(F)F)c1 [flufenamic acid],IC50 at 40 min,[9],7.7 µM
same,IC50 at 40 min,[6],11.4 µM
same,inhibition at 40 min,[6],40%
same,IC50 at 40 min,[7],9.9 µM
same,inhibition at 40 min,[7],40%
same,IC50 at 40 min,[8],5.6 µM
same,inhibition at 40 min,[8],40%
CC1(C)[C@@H](O)CC[C@]2(C)[C@H]3C(=O)C=C4[C@@H]5C[C@@](C)(C(=O)O)CC[C@]5(C)CC[C@@]4(C)[C@]3(C)CC[C@@H]12 [18β-glycyrrhetinic acid],inhibition of TB formation,[4],80%
same,inhibition of EB formation,[5],80%
same,inhibition of TB formation,[5],80%
"CC1(C)[C@@H](O)CC[C@]2(C)[C@H]3C(=O)C=C4[C@@H]5C[C@@](C)(C(=O)O)CC[C@]5(C)CC[C@@]4(C)[C@]3(C)CC[C@@H]12 [18β-GA, 18β-glycyrrhetinic acid]",IC50,[10],0.025 µM
same,IC50,[11],0.022 µM
same,IC50,[12],0.015 µM
C=C(C)[C@@H]1CCC2=CC(=O)C[C@@H](C)[C@]2(C)C1 [(+)-nootkatone],inhibition,[13],10 to 15%
